Assay results taken from patent US9649279B2, “Fortified micronutrient salt formulations” (Massachusetts Institute of Technology, priority 2013, dated 2017).
Entries after “also recorded” stand apart in the source; their conditions may differ. One block for each compound: values may come before it.

Experiments:
[1] = In vitro release of micronutrients from EPO microspheres; type: physicochemical; settings: for release in SGF / release in SGF after 0.5 hours: SGF at 37° C.; for release in water: water at room temperature and 100° C.
From the text: Eight essential micronutrients, presented in Table 3, were encapsulated and their release studied in vitro.
In-house assays were developed for micronutrient detection and determination of encapsulation efficiency and release kinetics.

[2] = Vitamin D3 stability and recovery; type: physicochemical
Procedure: Vitamin D3 is not stable under heat. Alteration involves ring-closure that allows generation of pyro- and isopyro-isomers. […] However, it degraded in water at 100° C. after 2 hours. The recovery of vitamin D3 in water at 100° C. is concentration-dependent. When the starting amount of vitamin D3 increased, the recovery after 2 hours cooking also went up, from 2% (15 μg), to 12% (60 μg), to 40% (240 μg), and to 60% (1 mg). The encapsulation of vitamin D3 in EPO matrix helped to stabilize the vitamin D3. The characteristic absorbance peak of vitamin D3 was preserved in D3-EPO after 100° C. in water for 2 hours. […] With HPLC, the recovery of D3 in D3-EPO was quantified to be around 47%.

[3] = Release of EPO-coated micronutrients in water then SGF (ELISA); type: physicochemical; settings: for release in SGF / release in water: 5% EPO coating; for release in SGF: SGF at 37° C., after one hour; for release in water: water at 25° C. and 100° C., one hour; for stability in the formulations by ELISA: not degraded or denatured
Procedure: To mimic food preparation then ingestion, the samples were submerged in 4 mL water (at 25° C. or 100° C.) for one hour and transferred to 4 mL simulated gastric fluid at 37° C. for two hours.

[4] = Autoclaving of vitamin B12 in EPO-HA microspheres; type: physicochemical; settings: 16 psig and 250° F. for 30 minutes
Procedure: Vitamin B12 was encapsulated in the EPO-HA microspheres and subjected to autoclaving. The autoclaving conditions were 16 psig and 250° F. for 30 minutes. […] Thus, the formulations can survive and prevent the leakage of MNs under autoclaving conditions.

[5] = Vitamin C stability and recovery under cooking conditions; type: physicochemical
Procedure: Formulations were tested for factors that increase stability and leakage characteristics for particular nutrients.
Ascorbic acid can become oxidixed and hydrolyzed, resulting in reduced bioactivity. Compounds specifically identified as stabilizing ascorbic acid, trans-Ferulic Acid (FA), Caffeic Acid (CA), and p-Coumaric Acid (p-CA), can be used in the particles and matrix to stabilize vitamin C.
To increase the loading of the ascorbic acid in the formulations, large amounts of ascorbic acid need to be added in the initial formulation process. However, the use of large amount of ascorbic acid can lower the pH of the water during the formulation, and this low pH condition can also dissolve the polymer we use to make the microparticles. To avoid this low pH issue, sodium ascorbate, which has equivalent bioactivity as ascorbic acid, can be used. Over 60 wt % of sodium ascorbate (NaAA) can be recovered after 2 hrs heating at 100° C.

[6] = enteric coated, three month storage, 25° C./20% RH and 45° C./60% RH; cited from earlier work

Compound: C=C1CC[C@H](O)C/C1=C/C=C1\CCC[C@]2(C)[C@@H]([C@H](C)CCCC(C)C)CC[C@@H]12 [Vitamin D3, cholecalciferol]
release in SGF ([1]; EPO-MS): Fast and complete release
release in water ([1]; EPO-MS): slow and limited release
characteristic absorbance peak (UV spectrum) after heating ([2]; 100° C. in water for 2 hours): totally degraded
stability in acidic condition ([2]; SGF (pH=1.2) at 37° C.): stable
stability in water at 100° C. ([2]; water, 100° C., after 2 hours): degraded
stability in water at room temperature ([2]; water, room temperature): stable

stability in the formulations by ELISA [3]: stable
effect of 1% oil during boiling on release ([1]; boiling, two hours, 1% oil added): did not increase release
leakage under autoclaving [4]: No severe leakage
Compound: Vitamin B12
release in SGF [3]: released all; also recorded: near complete release
release in water [3]: no release; also recorded: negligible release

recovered after heating ([5]; 2 hrs heating at 100° C.): Over 60 wt %
Compound: O=C1O[C@H]([C@@H](O)CO)C([O-])=C1O.[Na+] [NaAA, sodium ascorbate]

Compound: Nc1nc2ncc(CNc3ccc(C(=O)N[C@@H](CCC(=O)O)C(=O)O)cc3)nc2c(=O)[nH]1 [Vitamin B9, folic acid]
release in SGF [3]: near complete release
release in SGF ([3]; listed as B9): released all
release in water [3]: negligible release
release in water ([3]; listed as B9): no release
stability in the formulations by ELISA [3]: stable
release in SGF after 0.5 hours ([1]; EPO-gelatin-microspheres): Complete release
release in 100° C. boiling water ([1]; EPO-gelatin-microspheres, two hours): Slight leakage
release at room temperature ([1]; EPO-gelatin-microspheres, water, room temperature, two hours): Limited release

release in SGF after 0.5 hours ([1]; EPO-MS): Complete release
release in water after two hours ([1]; EPO-MS, room temperature and 100° C. boiling water, two hours): Limited release
release during cooking at 100° C. ([5]; increased concentration of the polymer coating): significantly reduced
Compound: O=C1O[C@H]([C@@H](O)CO)C(O)=C1O [Vitamin C, Ascorbic acid]

release in SGF ([1]; EPO-MS): Complete release
release in water ([1]; EPO-MS): limited release
Compound: CCCCCCCCCCCCCCCC(=O)OC/C=C(C)/C=C/C=C(C)/C=C/C1=C(C)CCCC1(C)C [Vitamin A, Retinyl Palimitate]
losses of the micronutrient after storage [6]: 50-99%
